Here are results for 3 compounds from patent US20080070973A1, “Compounds having activity at the GlyT1 transporter” (priority 2006, published 2008).

Molecules are shown by their SMILES. Read-outs that look alike come from different tables or passages of the source.

The target of test [1] is T1, GlyT1 transporter (Homo sapiens, UniProt P48067).
T1 construct: expressed in transfected cells
T1 sequence (P48067 1-706): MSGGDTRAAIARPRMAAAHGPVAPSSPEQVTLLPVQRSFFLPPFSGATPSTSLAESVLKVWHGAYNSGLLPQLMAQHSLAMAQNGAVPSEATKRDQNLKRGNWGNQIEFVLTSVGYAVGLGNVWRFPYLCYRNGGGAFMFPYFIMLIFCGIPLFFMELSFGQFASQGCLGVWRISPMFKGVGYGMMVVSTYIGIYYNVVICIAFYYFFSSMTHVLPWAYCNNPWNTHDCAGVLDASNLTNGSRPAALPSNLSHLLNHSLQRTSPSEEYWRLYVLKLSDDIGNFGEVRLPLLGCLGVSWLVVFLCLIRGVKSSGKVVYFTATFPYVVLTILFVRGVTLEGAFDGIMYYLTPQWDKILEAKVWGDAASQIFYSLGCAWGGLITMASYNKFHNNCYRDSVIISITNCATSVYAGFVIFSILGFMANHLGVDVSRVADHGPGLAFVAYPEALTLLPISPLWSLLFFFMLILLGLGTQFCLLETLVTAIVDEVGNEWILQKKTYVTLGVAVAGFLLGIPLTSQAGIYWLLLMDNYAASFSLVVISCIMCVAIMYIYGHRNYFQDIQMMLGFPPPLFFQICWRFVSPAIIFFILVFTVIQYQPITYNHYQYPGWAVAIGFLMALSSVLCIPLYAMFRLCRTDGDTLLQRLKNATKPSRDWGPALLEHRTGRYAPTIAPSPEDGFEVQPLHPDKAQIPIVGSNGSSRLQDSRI
The experiment in a line: GlyT1 transporter [3H]-glycine uptake SPA assay in HEK293 cells. The test is classed as cell-based. The conditions noted are these: for IC50: HEK293 cells expressing the Glycine (Type 1) transporter. Here is the method:
The affinities of the compounds of this invention for the GlyT1 transporter were determined by the following assay:
HEK293 cells expressing the Glycine (Type 1) transporter were grown in cell culture medium [DMEM/NUT mix F12 containing 2 mM L-Glutamine, 0.8 mg/mL G418 and 10% heat inactivated fetal calf serum] at 37° C. and 5% CO2. Cells grown to 70-80% confluency in T175 flasks were harvested and frozen. For the assay, cells were defrosted and resuspended at 1.32×10^6 cells/mL in assay buffer [140 mM NaCl, 5.4 mM KCl, 1.8 mM CaCl2, 0.8 mM MgSO4, 20 mM HEPES, 5 mM glucose and 5 mM alanine, pH 7.4]. Compounds were serially diluted either 3-fold or 4-fold in DMSO from a top concentration of 2.5 mM with each compound giving a 11 data point dose-response. 100 nL of compound at each concentration was added to the assay plate. An equal volume of Leadseeker™ WGA SPA beads (12.5 mg/ml suspended in assay buffer) was added to the cell suspension (1.32×106) and 5 uL of the cell/bead suspension transferred to each well of a LV384-well white solid bottom plate (3300 cells/well) containing 100 nL of test compounds. Substrate (5 uL) was added to each well [1:100 dilution of [3H]-glycine stock in assay buffer containing 2.5 uM glycine). Final DMSO concentration was 1% v/v. Data was collected using a Perkin Elmer Viewlux™. pIC50 values were determined using ActivityBase™.

The target in test [2] is T2, GlyT2 (Homo sapiens, UniProt Q9Y345).
T2 sequence (Q9Y345 1-797): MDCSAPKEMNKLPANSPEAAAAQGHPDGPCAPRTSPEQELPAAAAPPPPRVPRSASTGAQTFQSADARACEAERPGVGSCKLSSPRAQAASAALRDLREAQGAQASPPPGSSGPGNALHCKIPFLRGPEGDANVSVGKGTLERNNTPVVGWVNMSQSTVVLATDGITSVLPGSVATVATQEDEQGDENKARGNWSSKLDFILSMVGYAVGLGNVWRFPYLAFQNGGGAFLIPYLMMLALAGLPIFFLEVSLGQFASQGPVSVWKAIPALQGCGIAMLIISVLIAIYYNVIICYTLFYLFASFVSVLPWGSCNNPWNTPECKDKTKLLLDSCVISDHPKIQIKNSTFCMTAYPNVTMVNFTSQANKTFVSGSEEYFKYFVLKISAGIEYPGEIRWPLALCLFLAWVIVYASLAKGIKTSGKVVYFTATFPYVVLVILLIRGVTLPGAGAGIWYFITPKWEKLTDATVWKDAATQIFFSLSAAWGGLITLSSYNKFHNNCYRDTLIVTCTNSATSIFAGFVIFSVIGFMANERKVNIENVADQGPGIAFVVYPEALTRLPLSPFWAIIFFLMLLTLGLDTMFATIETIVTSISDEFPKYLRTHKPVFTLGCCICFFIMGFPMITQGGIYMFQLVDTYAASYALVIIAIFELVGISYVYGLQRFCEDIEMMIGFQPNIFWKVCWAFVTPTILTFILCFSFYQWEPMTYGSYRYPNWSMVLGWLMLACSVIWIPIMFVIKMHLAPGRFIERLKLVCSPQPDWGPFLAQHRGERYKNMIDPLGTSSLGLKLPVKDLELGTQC
The experiment in a line: Affinity for GlyT1 compared with GlyT2 (statement, no method given). The conditions noted are these: qualitative statement on the parent compound; no value given.

With `COc1cc(C(F)(F)F)cc(C(F)(F)F)c1C(=O)NC(c1ccccc1)C(C)(C)N1CCCC1` (stereo not shown) [2-(methyloxy)-N-[2-methyl-1-phenyl-2-(1-pyrrolidinyl)propyl]-4,6-bis(trifluoromethyl)benzamide], the “inhibition of the glycine transporter type GlyT1 (result in words)” value in test [1] (qualitative statement on the parent compound, no value given) is “inhibitor of the glycine transporter type GlyT1”. Also, the “affinity for GlyT1 relative to GlyT2 (selectivity, result in words)” value in test [2] is reported as “greater affinity for GlyT1 than for GlyT2”. For `COc1cc(C(F)(F)F)cc(C(F)(F)F)c1C(=O)N[C@H](c1ccccc1)C(C)(C)N1CCCC1` [R-(−)-2-(Methyloxy)-N-[2-methyl-1-phenyl-2-(1-pyrrolidinyl)propyl]-4,6-bis(trifluoromethyl)benzamide 1,5-heminapadisylate], the IC50 in test [1] (n=1, read-out: pIC50 at the GlyT1 transporter (converted)) is 5.01 nM.

Consider `COc1cc(C(F)(F)F)cc(C(F)(F)F)c1C(=O)N[C@H](c1ccccc1)C(C)(C)N1CCCC1` [R-(−)-2-(Methyloxy)-N-[2-methyl-1-phenyl-2-(1-pyrrolidinyl)propyl]-4,6-bis(trifluoromethyl)benzamide monosuccinate], for which, in test [1] (n=5, read-out: average pIC50 at the GlyT1 transporter (converted)), the IC50 was 15.8 nM.
